Data published in PubChem BioAssay AID256 (DTP/NCI, 2004).
Values joined by “and” are separate entries in the source; they are usually repeats but may differ in a detail not shown here. Equal values may be shown once. Toxic doses and inconclusive results are not listed. The calls were made as follows: active = survival T/C of 150% or more; inactive = T/C below 125% in these data.

System: CD2F1 mice, L1210 leukemia ip, survival T/C
Assay: NCI In Vivo Anticancer Drug Screen. Data for tumor model L1210 Leukemia (intraperitoneal) in CD2F1 (CDF1) mice
Settings: higher = longer survival
Outline: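 Compound-dosed mice with transplantable tumor versus matched vehicle controls; endpoint ratio T/C reported.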

[1] = endpoint: mean survival time, dose: 25.0 mg/kg/injection, schedule: Q01DX009 (ip), vehicle: saline with Tween-80
[2] = endpoint: mean survival time, dose: 50.0 mg/kg/injection, schedule: Q01DX009 (ip), vehicle: saline with Tween-80
[3] = endpoint: mean survival time, dose: 100.0 mg/kg/injection, schedule: Q01DX009 (ip), vehicle: saline with Tween-80
[4] = endpoint: mean survival time, dose: 400.0 mg/kg/injection, schedule: Q01DX009 (ip), vehicle: saline with Tween-80
[5] = endpoint: mean survival time, dose: 200.0 mg/kg/injection, schedule: Q01DX009 (ip), vehicle: saline with Tween-80
[6] = endpoint: mean survival time, dose: 100.0 mg/kg/injection, schedule: Q04DX002 (ip), vehicle: saline with Tween-80
[7] = endpoint: mean survival time, dose: 400.0 mg/kg/injection, schedule: Q04DX002 (ip), vehicle: saline with Tween-80
[8] = endpoint: mean survival time, dose: 200.0 mg/kg/injection, schedule: Q04DX002 (ip), vehicle: saline with Tween-80
[9] = endpoint: mean survival time, dose: 100.0 mg/kg/injection, schedule: Q04DX003 (ip), vehicle: saline with Tween-80

Measured: T/C

NC1CCCCC1N.O=C(Nc1ccc2c(O)cc(S(=O)(=O)[O-])cc2c1)c1ccccc1.O=C(Nc1ccc2c(O)cc(S(=O)(=O)[O-])cc2c1)c1ccccc1.[Pt+4]
active: endpoint: median survival time, dose: 1.56 mg/kg/injection, schedule: Q04DX003 (ip), vehicle: saline with Tween-80 166 % of control | endpoint: median survival time, dose: 3.12 mg/kg/injection, schedule: Q04DX003 (ip), vehicle: saline with Tween-80 204 % of control and 344 % of control | endpoint: median survival time, dose: 6.25 mg/kg/injection, schedule: Q04DX003 (ip), vehicle: saline with Tween-80 289 % of control and 344 % of control | endpoint: median survival time, dose: 12.5 mg/kg/injection, schedule: Q04DX003 (ip), vehicle: saline with Tween-80 289 % of control
inactive: endpoint: median survival time, dose: 25.0 mg/kg/injection, schedule: Q04DX003 (ip), vehicle: saline with Tween-80 91 % of control

CCOC(=O)C(C)(C)C(OP(=O)(OCC)OCC)=C(C)C
inactive: endpoint: mean survival time, dose: 75.0 mg/kg/injection, schedule: Q01DX001 (ip), vehicle: saline 103 % of control | endpoint: mean survival time, dose: 150.0 mg/kg/injection, schedule: Q01DX001 (ip), vehicle: saline 97 % of control | endpoint: mean survival time, dose: 300.0 mg/kg/injection, schedule: Q01DX001 (ip), vehicle: saline 100 % of control

CC(N)CCc1ccccc1 (centres undefined)
inactive: endpoint: mean survival time, dose: 12.5 mg/kg/injection, schedule: Q01DX009 (ip), vehicle: saline with Tween-80 102 % of control | [1] 100 % of control | [2] 102 % of control

N#CC1(O)CCCCC1
inactive: endpoint: mean survival time, dose: 2.5 mg/kg/injection, schedule: Q01DX009 (ip), vehicle: saline with Tween-80 102 % of control | endpoint: mean survival time, dose: 5.0 mg/kg/injection, schedule: Q01DX009 (ip), vehicle: saline with Tween-80 104 % of control | endpoint: mean survival time, dose: 5.0 mg/kg/injection, schedule: Q04DX003 (ip), vehicle: saline with Tween-80 102 % of control | endpoint: mean survival time, dose: 10.0 mg/kg/injection, schedule: Q01DX009 (ip), vehicle: saline with Tween-80 94 % of control | endpoint: mean survival time, dose: 10.0 mg/kg/injection, schedule: Q04DX003 (ip), vehicle: saline with Tween-80 102 % of control

CCOC(=O)c1c[nH]c2oc(/C=N/N3CC(CN4CCOCC4)OC3=O)cc2c1=O (centres undefined)
active: endpoint: mean survival time, dose: 200.0 mg/kg/injection, schedule: Q01DX009 (ip), vehicle: other 160 % of control | endpoint: mean survival time, dose: 200.0 mg/kg/injection, schedule: Q01DX009 (ip), vehicle: saline 158 % of control | [4] 152 % of control | endpoint: median survival time, dose: 400.0 mg/kg/injection, schedule: Q01DX005 (ip), vehicle: other 190 % of control
inactive: endpoint: mean survival time, dose: 12.5 mg/kg/injection, schedule: Q01DX009 (ip), vehicle: saline 97 % of control and 109 % of control | endpoint: mean survival time, dose: 25.0 mg/kg/injection, schedule: Q01DX009 (ip), vehicle: other 102 % of control | [1] 107 % of control | endpoint: mean survival time, dose: 25.0 mg/kg/injection, schedule: Q01DX009 (ip), vehicle: saline 97 % of control and 103 % of control | endpoint: mean survival time, dose: 50.0 mg/kg/injection, schedule: Q01DX009 (ip), vehicle: other 110 % of control | [2] 109 % of control | endpoint: mean survival time, dose: 50.0 mg/kg/injection, schedule: Q01DX009 (ip), vehicle: saline 114 % of control and 101 % of control | [3] 124 % of control | endpoint: mean survival time, dose: 400.0 mg/kg/injection, schedule: Q01DX009 (ip), vehicle: other 96 % of control | endpoint: mean survival time, dose: 400.0 mg/kg/injection, schedule: Q01DX009 (ip), vehicle: saline 124 % of control and 100 % of control | endpoint: median survival time, dose: 50.0 mg/kg/injection, schedule: Q01DX005 (ip), vehicle: other 112 % of control | endpoint: median survival time, dose: 50.0 mg/kg/injection, schedule: Q01DX009 (ip), vehicle: acid diluted with saline 115 % of control and 101 % of control | endpoint: median survival time, dose: 100.0 mg/kg/injection, schedule: Q01DX005 (ip), vehicle: other 118 % of control | endpoint: median survival time, dose: 100.0 mg/kg/injection, schedule: Q01DX009 (ip), vehicle: acid diluted with saline 124 % of control | endpoint: median survival time, dose: 400.0 mg/kg/injection, schedule: Q01DX009 (ip), vehicle: acid diluted with saline 90 % of control

COc1ccc(OC)c(C)c1
inactive: [3] 105 % of control | [5] 107 % of control | [4] 104 % of control

C#CC(OC(=O)Nc1ccccc1)C1OC2OC(C)(C)OC2C2OC(C)(C)OC12 (centres undefined)
inactive: [2] 97 % of control | [3] 93 % of control | [5] 97 % of control

C1CC2OC2C1 (centres undefined)
inactive: endpoint: mean survival time, dose: 100.0 mg/kg/injection, schedule: Q01DX009 (ip), vehicle: acetone 95 % of control | endpoint: mean survival time, dose: 200.0 mg/kg/injection, schedule: Q01DX009 (ip), vehicle: acetone 97 % of control | endpoint: mean survival time, dose: 400.0 mg/kg/injection, schedule: Q01DX009 (ip), vehicle: acetone 95 % of control

N#C/C(=C\C1CCCCC1Cl)C1CCC([N+](=O)[O-])CC1 (centres undefined)
inactive: [6] 91 % of control | [7] 87 % of control

CN(N)c1nc2c(=O)[nH]c(N)nc2n1C1OC(CO)C(O)C1O (centres undefined)
inactive: endpoint: mean survival time, dose: 1.56 mg/kg/injection, schedule: Q01DX005 (ip), vehicle: water 101 % of control | endpoint: mean survival time, dose: 3.12 mg/kg/injection, schedule: Q01DX005 (ip), vehicle: water 101 % of control | endpoint: mean survival time, dose: 6.25 mg/kg/injection, schedule: Q01DX005 (ip), vehicle: water 101 % of control | endpoint: mean survival time, dose: 12.5 mg/kg/injection, schedule: Q01DX005 (ip), vehicle: water 98 % of control | endpoint: mean survival time, dose: 25.0 mg/kg/injection, schedule: Q01DX005 (ip), vehicle: water 103 % of control

[Co].[N-]=C=S.[N-]=C=S.[N-]=C=S.[NH2-].[NH2-].[NH2-]
inactive: endpoint: mean survival time, dose: 50.0 mg/kg/injection, schedule: Q01DX001 (ip), vehicle: saline with Tween-80 98 % of control and 101 % of control

Cc1cn(CC(O)c2cc3ccccc3[nH]2)c(=O)[nH]c1=O (centres undefined)
inactive: [6] 97 % of control | [8] 97 % of control | [7] 93 % of control

N#Cc1ccc(NN=O)nc1
active: endpoint: median survival time, dose: 15.0 mg/kg/injection, schedule: Q01DX005 (ip), vehicle: water 152 % of control and 158 % of control | endpoint: median survival time, dose: 25.0 mg/kg/injection, schedule: Q01DX005 (ip), vehicle: water 164 % of control and 175 % of control | endpoint: median survival time, dose: 41.66 mg/kg/injection, schedule: Q01DX005 (ip), vehicle: water 191 % of control
inactive: endpoint: median survival time, dose: 3.12 mg/kg/injection, schedule: Q01DX005 (ip), vehicle: water 109 % of control | endpoint: median survival time, dose: 6.25 mg/kg/injection, schedule: Q01DX005 (ip), vehicle: water 120 % of control | endpoint: median survival time, dose: 12.5 mg/kg/injection, schedule: Q01DX005 (ip), vehicle: water 124 % of control | endpoint: median survival time, dose: 50.0 mg/kg/injection, schedule: Q01DX005 (ip), vehicle: water 95 % of control | endpoint: median survival time, dose: 69.4 mg/kg/injection, schedule: Q01DX005 (ip), vehicle: water 118 % of control

N#CCCN=C1C=CC(=C(c2ccc(NCCC#N)cc2)c2ccccc2Cl)C=C1
inactive: [8] 93 % of control | [7] 103 % of control

CC(C)C(C=O)C(O)(C(F)(F)F)C(F)(F)Cl (centres undefined)
inactive: [9] 91 % of control

CN(C)c1ccc(C(O)c2ccc(N(C)C)cc2)cc1
inactive: [9] 90 % of control | endpoint: mean survival time, dose: 200.0 mg/kg/injection, schedule: Q04DX003 (ip), vehicle: saline with Tween-80 91 % of control | endpoint: mean survival time, dose: 400.0 mg/kg/injection, schedule: Q04DX003 (ip), vehicle: saline with Tween-80 94 % of control

[I][Pt+2][I].[NH-]c1ccccc1F.[NH-]c1ccccc1F
inactive: endpoint: mean survival time, dose: 3.13 mg/kg/injection, schedule: Q04DX003 (ip), vehicle: distilled water + Tween-80 98 % of control | endpoint: mean survival time, dose: 6.25 mg/kg/injection, schedule: Q04DX003 (ip), vehicle: distilled water + Tween-80 101 % of control | endpoint: mean survival time, dose: 12.5 mg/kg/injection, schedule: Q04DX003 (ip), vehicle: distilled water + Tween-80 98 % of control | endpoint: mean survival time, dose: 25.0 mg/kg/injection, schedule: Q04DX003 (ip), vehicle: distilled water + Tween-80 101 % of control | endpoint: mean survival time, dose: 50.0 mg/kg/injection, schedule: Q04DX003 (ip), vehicle: distilled water + Tween-80 102 % of control | endpoint: mean survival time, dose: 100.0 mg/kg/injection, schedule: Q04DX003 (ip), vehicle: distilled water + Tween-80 98 % of control | endpoint: mean survival time, dose: 200.0 mg/kg/injection, schedule: Q04DX003 (ip), vehicle: distilled water + Tween-80 101 % of control

CC1(C(=O)c2ccccc2)CC2C=CC1C2 (centres undefined)
inactive: endpoint: mean survival time, dose: 50.0 mg/kg/injection, schedule: Q04DX002 (ip), vehicle: saline with Tween-80 94 % of control | [6] 108 % of control | [8] 94 % of control

CCCCCCCCCCCCCCCC(=O)N(CCCN)C(C)(C)CCC(C)(C)N(CCCN)C(=O)CCCCCCCCCCCCCCC
inactive: endpoint: mean survival time, dose: 1.56 mg/kg/injection, schedule: Q01DX009 (ip), vehicle: water 106 % of control | endpoint: mean survival time, dose: 3.13 mg/kg/injection, schedule: Q01DX009 (ip), vehicle: water 98 % of control | endpoint: mean survival time, dose: 6.25 mg/kg/injection, schedule: Q01DX009 (ip), vehicle: water 104 % of control | endpoint: mean survival time, dose: 12.5 mg/kg/injection, schedule: Q01DX009 (ip), vehicle: water 102 % of control | endpoint: mean survival time, dose: 25.0 mg/kg/injection, schedule: Q01DX009 (ip), vehicle: water 89 % of control and 95 % of control
